Key:
[1] = Compound stability in rat liver microsomes; type: in vitro ADME; details: pH 7.4; for half-life at 5 μM: rat liver microsomes 0.5 mg protein/mL, compound 5 μM, NADPH, 37° C., read-out: Rat T1/2; for CLint scaled at 5 μM: rat liver microsomes, in vivo CLint extrapolated
Description: (§1) Human or rat liver microsomes incubations were conducted in duplicate in polypropylene tubes. The typical incubation mixtures consisted of human or rat liver microsomes (0.5 mg protein/mL), compounds of interest (5 μM) and NADPH (1.0 mM) in a total volume of 200 μL potassium phosphate buffer (PBS, 100 mM, pH 7.4). Compounds were dissolved in DMSO and diluted with PBS such that the final concentration of DMSO was 0.05%. The enzymatic reactions were commenced with the addition of protein after a 3-min preincubation and incubated in a water bath open to the air at 37° C. Reactions were terminated at various time points (0, 5, 10, 15, 30, 60 min) by adding equal volume of ice-cold acetonitrile. The samples were stored at −80° C. until LC/MS/MS assays.
(§2) The concentrations of compounds in the incubation mixtures of human or rat liver microsomes were determined by a LC/MS/MS method. The ranges of the linearity in the concentration range were determined for each tested compounds.
(§3) A parallel incubation was performed using denatured microsomes as the negative control, and reactions were terminated at various time points (0, 15, 60 min) after incubation at 37° C.
(§4) Dextromethorphan (70 μM) was selected as the positive control, and reactions were terminated at various time points (0, 5, 10, 15, 30, 60 min) after incubation at 37° C. Both positive and negative control samples were included in each assay to ensure the integrity of the microsomal incubation system.
(§5) The concentrations of compounds in human or rat liver microsome incubations were plotted as a percentage of the relevant zero time point control for each reaction. The in vivo CLint were extrapolated (ref.: Naritomi, Y.; Terashita, S.; Kimura, S.; Suzuki, A.; Kagayama, A.; and Sugiyama, Y.; Prediction of human hepatic clearance from in vivo animal experiments and in vitro metabolic studies with liver microsomes from animals and humans. Drug Metab. Dispos., 2001, 29: 1316-1324).

[2] = Pharmacokinetics after intravenous and oral administration in rats; type: in vivo; details: for Clearance (CL) after iv dosing / AUC(0-t) / half-life / Vd: dose 1 mg/kg, iv dosing; for F: oral bioavailability; for AUC(0-t) / half-life / Vd: rat, plasma; for Vd: read-out: Vss
Description: The LC/MS/MS system used in the analysis consists of an Agilent 1200 Series vacuum degasser, binary pump, well-plate autosampler, thermostatted column compartment, the Agilent G6430 Triple Quadrupole Mass Spectrometer with an electrosprayionization (ESI) source. Quantitative analysis was carried out using MRM mode. The parameters for MRM transitions are in the Table A.
An Agilent XDB-C18, 2.1×30 mm, 3.5 μM column was used for the analysis. 5 μL of the samples were injected. Analysis condition: The mobile phase was 0.1% formic acid in water (A) and 0.1% formic acid in methanol (B). The flow rate was 0.4 mL/min. And the gradient of Mobile phase was in the Table B.
Alternatively, an Agilent 6330 series LC/MS/MS spectrometer equipped with G1312A binary pumps, a G1367A autosampler and a G1314C UV detector were used in the analysis. An ESI source was used on the LC/MS/MS spectrometer. The analysis was done in positive ion mode as appropriate and the MRM transition for each analyte was optimized using standard solution. A Capcell MP-C18 100×4.6 mm I.D., […] column (Phenomenex, Torrance, Calif., USA) was used during the analysis. The mobile phase was 5 mM ammonia acetate, 0.1% MeOH in water (A): 5 mM ammonia acetate, 0.1% MeOH in acetonitrile (B) (70/30, v/v). The flow rate was 0.6 mL/min. Column was maintained at ambient temperature. 20 μL of the samples were injected.
The compounds disclosed herein are assessed in pharmacokinetic studies in mice, rats, dogs or monkeys. The compounds are administered as a water solution, 2% HPMC+1% TWEEN®80 in water solution, 5% DMSO+5% solutol in saline, 4% MC suspension or capsule. For the intravenous administration, the animals are generally given at 0.5, 1 or 2 mg/kg dose. For the oral (p.o.) dosing, mice and rats are generally given 0.5, 1, 5 or 10 mg/kg dose, and dogs and monkeys are generally given 10 mg/kg dose. The blood samples (0.3 mL) are drawn at 0.25, 0.5, 1.0, 2.0, 3.0, 4.0, 6.0, 8.0, 12 and 24 h time points or 0.083, 0.25, 0.5, 1.0, 2.0, 4.0, 6.0, 8.0 and 24 h time points and centrifuged at 3,000 or 4000 rpm for 2 to 10 min. The plasma solutions are collected, and stored at −20° C. or −70° C. until analyzed by LC/MS/MS as described above.

[3] = Compound stability in human liver microsomes; type: in vitro ADME; details: pH 7.4; for half-life at 5 μM: human liver microsomes 0.5 mg protein/mL, compound 5 μM, NADPH, 37° C., read-out: Human T1/2; for CLint scaled at 5 μM: human liver microsomes, in vivo CLint extrapolated
Description: as §1, §2, §3, §4, §5

half-life at 5 μM [1] [min]	CLint scaled at 5 μM [1] [mL/min/kg]	Clearance (CL) after iv dosing [2] [mL/min/kg]	F [2] [%]	AUC(0-t) [2] [ng·h/mL]	half-life [2] [min]	Vd [2] [L/kg]	half-life at 5 μM [3] [min]	CLint scaled at 5 μM [3] [mL/min/kg]	Structure (SMILES)
116	21.4	42	52.4	398	13.8	0.55	–	–	CNC(=O)N[C@H]1COC2C1OC[C@H]2Nc1nc(Nc2cnn(C)c2)ncc1Cl (stereo partly drawn) [Ex. 1, 1-((3S,6R)-6-((5-chloro-2-((1-methyl-1H-pyrazol-4-yl)amino)pyrimidin-4-yl)amino)hexahydrofuro[3,2-b]furan-3-yl)-3-methylurea]
–	–	–	64.6	792	636	27.1	–	–	Cn1cc(Nc2ncc(Cl)c(N[C@@H]3COC4C3OC[C@@H]4N3CCOC3=O)n2)cn1 (stereo partly drawn) [Ex. 9, 3-((3S,6R)-6-((5-chloro-2-((1-methyl-1H-pyrazol-4-yl)amino)pyrimidin-4-yl)amino)hexahydrofuro[3,2-b]furan-3-yl)oxazolidin-2-one]
121	20.6	–	40.0	542	335	23.5	44.1	39.4	Cn1cc(Nc2ncc(Cl)c(N[C@@H]3COC4C3OC[C@@H]4NS(=O)(=O)N3CCOCC3)n2)cn1 (stereo partly drawn) [Ex. 11, N-((3S,6R)-6-((5-chloro-2-((1-methyl-1H-pyrazol-4-yl)amino)pyrimidin-4-yl)amino)hexahydrofuro[3,2-b]furan-3-yl)morpholine-4-sulfonamide]
26.6	93.4	7	67.5	2440	27	0.26	60	29	Cn1cc(Nc2ncc(Cl)c(N[C@@H]3COC4C3OC[C@@H]4Nc3ccc(C#N)cn3)n2)cn1 (stereo partly drawn) [Ex. 23, 6-(((3S,6R)-6-((5-chloro-2-((1-methyl-1H-pyrazol-4-yl)amino)pyrimidin-4-yl)amino)hexahydrofuro[3,2-b]furan-3-yl)amino)nicotinonitrile]
78.6	31.6	29.3	127.3	567	42	1.4	25.6	68	Cn1cc(Nc2ncc(Cl)c(N[C@@H]3COC4C3OC[C@@H]4NS(=O)(=O)C(C)(C)C)n2)cn1 (stereo partly drawn) [Ex. 24, N-((3S,6R)-6-((5-chloro-2-((1-methyl-1H-pyrazol-4-yl)amino)pyrimidin-4-yl)amino)hexahydrofuro[3,2-b]furan-3-yl)-2-methylpropane-2-sulfonamide]
441	5.6	–	–	–	–	–	51.1	34	O=S(=O)(CC1CC1)N[C@H]1COC2C1OC[C@H]2Nc1nc(Nc2cnn(C3CCNCC3)c2)ncc1Cl (stereo partly drawn) [Ex. 35, N-((3S,6R)-6-((5-chloro-2-((1-(piperidin-4-yl)-1H-pyrazol-4-yl)amino)pyrimidin-4-yl)amino)hexahydrofuro[3,2-b]furan-3-yl)-1-cyclopropylmethanesulfonamide]

Second part, the compound before the results:

Structure (SMILES)	half-life at 5 μM [1] [min]	CLint scaled at 5 μM [1] [mL/min/kg]	Clearance (CL) after iv dosing [2] [mL/min/kg]	F [2] [%]	AUC(0-t) [2] [ng·h/mL]	half-life [2] [min]	Vd [2] [L/kg]	half-life at 5 μM [3] [min]	CLint scaled at 5 μM [3] [mL/min/kg]
Cn1cc(Nc2ncc(Cl)c(N[C@@H]3COC4C3OC[C@@H]4NS(=O)(=O)c3ccc(F)cc3)n2)cn1 (stereo partly drawn) [Ex. 8, N-((3S,6R)-6-((5-chloro-2-((1-methyl-1H-pyrazol-4-yl)amino)pyrimidin-4-yl)amino)hexahydrofuro[3,2-b]furan-3-yl)-4-fluorobenzenesulfonamide]	68	36.5	38	90.1	452	37.2	1.87	57.3	30.4
Cn1cc(Nc2ncc(Cl)c(N[C@@H]3COC4C3OC[C@@H]4N3CCCS3(=O)=O)n2)cn1 (stereo partly drawn) [Ex. 12, 2-((3S,6R)-6-((5-chloro-2-((1-methyl-1H-pyrazol-4-yl)amino)pyrimidin-4-yl)amino)hexahydrofuro[3,2-b]furan-3-yl)isothiazolidine 1,1-dioxide]	105	23.7	59.8	75.2	363	40.2	1.98	272	6.39
Cn1cc(Nc2ncc(Cl)c(N[C@@H]3COC4C3OC[C@@H]4N3CCCC3=O)n2)cn1 (stereo partly drawn) [Ex. 22, 1-((3S,6R)-6-((5-chloro-2-((1-methyl-1H-pyrazol-4-yl)amino)pyrimidin-4-yl)amino)hexahydrofuro[3,2-b]furan-3-yl)pyrrolidin-2-one]	104	23.8	10.2	96.9	1630	65.4	1.06	289	6.01
CC(CF)CS(=O)(=O)N[C@H]1COC2C1OC[C@H]2Nc1nc(Nc2cnn(C)c2)ncc1Cl (stereo partly drawn) [Ex. 37, N-((3S,6R)-6-((5-chloro-2-((1-methyl-1H-pyrazol-4-yl)amino)pyrimidin-4-yl)amino)hexahydrofuro[3,2-b]furan-3-yl)-3-fluoro-2-methylpropane-1-sulfonamide]	34.9	71.1	34.2	69.5	491	32.4	0.86	26.6	65.5
Cn1cc(Nc2ncc(Cl)c(N[C@@H]3COC4C3OC[C@@H]4NS(=O)(=O)CC3CC(F)C3)n2)cn1 (stereo partly drawn) [Ex. 39, N-((3S,6R)-6-((5-chloro-2-((1-methyl-1H-pyrazol-4-yl)amino)pyrimidin-4-yl)amino)hexahydrofuro[3,2-b]furan-3-yl)-1-(3-fluorocyclobutyl)methanesulfonamide]	–	–	35.8	48.7	464	33	1.07	–	–
CC(O)CS(=O)(=O)N[C@H]1COC2C1OC[C@H]2Nc1nc(Nc2cnn(C)c2)ncc1Cl (stereo partly drawn) [Ex. 44, N-((3S,6R)-6-((5-chloro-2-((1-methyl-1H-pyrazol-4-yl)amino)pyrimidin-4-yl)amino)hexahydrofuro[3,2-b]furan-3-yl)-2-hydroxypropane-1-sulfonamide]	310	8	–	–	–	–	–	837	2.1
